# Data: article PMC10928576, “Cpne7 deficiency induces cellular senescence and premature aging of dental pulp” (Aging Cell, 2023)
# Experiments:
# [1] = tested on: hDPCs; assay: Senescence β-galactosidase (SA-β gal) staining of H2O2-treated hDPCs; type: cell-based, human; details: hDPCs, 1 mM H2O2, 30 min
# Method: The hDPCs were obtained from the Seoul National University Dental Hospital, and the experimental protocol was accepted by the Institutional Review Board of the Seoul National University (S‐D20140007). Informed consent was obtained from patients. Human DPCs were isolated and used in an in vitro experiment as described previously (Jung et al., [2011]). Human DPCs were cultured in minimum essential medium α (Gibco BRL, 12571063) supplemented with 10% heat‐inactivated fetal bovine serum (FBS; Gibco BRL, 16000044) and antibiotic‐antimycotic (Gibco BRL, 15240062) at 37°C in an atmosphere with 5% CO2. The cells were then treated with recombinant CPNE7 protein (rCPNE7, 100 ng/mL; Origene, TP306428) or CPNE7‐derived peptide (CPNE7‐DP, 10 μg/mL). After oxidative stress‐induced DNA damage using Hydrogen Peroxide Solution (H2O2; Merck, H1009) rCPNE7 was treated after replacement with a new culture medium (α‐MEM).
# Human DPCs were fixated with Fixative Solution (Cell Signaling Technology, #9860) at room temperature for 15 min. Rinsed twice with PBS, the cells were then stained with β‐Galactosidase Staining Solution (Cell Signaling Technology, #9860) at 37°C overnight in a dry incubator (no CO2). Cells were observed using light microscopy (Primovert, Zeiss, Germany) (n = 3, each group).
# [2] = tested on: hDPCs; assay: γ-H2AX immunofluorescence in hDPCs; type: cell-based, human; details: 1 mM H2O2, vs control
# Method: Human DPCs and tissue sections were treated with phosphate‐buffered saline (PBS) and 0.5% Triton X‐100 for permeabilization. After washing and blocking, cells and tissue samples were incubated overnight at 4°C with γ‐H2AX (1:100, Cell Signaling Technology, #9718) and CPNE7 (1:100) in blocking buffer (PBS and 2% bovine serum albumin). Subsequently, FITC‐conjugated anti‐rabbit secondary antibody (1:500) or Cy3‐conjugated anti‐rabbit (1:500) was applied. Cells were visualized using confocal microscopy (LSM980, Zeiss, Germany). The chromosomal DNA in the nucleus was stained with 4′,6‐diamidino‐2‐phenylindole (DAPI). The microtubules were detected using α‐TUBULIN antibodies (1:1000; Santa Cruz), and F‐ACTIN was stained with Alexa Fluor 488 or rhodamine‐conjugated phalloidin (Invitrogen). Flag‐tagged rCPNE7 was detected using Flag‐antibodies (1:500; Sigma–Aldrich), and TAU was detected by TAU antibodies (1:100; CUSABIO). Immunofluorescence staining of TAU, F‐ACTIN, and α‐TUBULIN was analyzed using the IMARIS cell imaging software (Bitplane) (n = 3, each group).
# [3] = tested on: hDPCs; assay: γ-H2AX / P21 western blot in H2O2-treated hDPCs; type: cell-based, human
# Method: Cellular proteins (30 μg) were separated by 10% or 15% sodium dodecyl sulfate‐polyacrylamide gel electrophoresis (SDS‐PAGE) and transferred to polyvinylidene fluoride (PVDF) membranes. The PVDF membranes were blocked for 1 h with 5% nonfat dry milk in Tris‐buffered saline containing 0.1% Tween 20 (TBS‐T) and incubated overnight at 4°C with the primary antibody diluted in TBS‐T (1:5000). After washing, membranes were incubated for 1 h with the appropriate secondary antibodies. Labeled protein bands were detected under an enhanced chemiluminescence system (Amersham Biosciences/GE Healthcare). All reactions were performed in triplicate. Semi‐quantitative analyses were performed using Image J software (National Institute of Health, MD, USA) (n = 3, each group).
# [4] = tested on: hDPCs; assay: Comet assay; type: cell-based, human; details: 1 mM H2O2
# Method: Human DPCs were combined with Comet Agarose (Abcam, ab238544) at 1/10 ratio (v/v), mixed by pipetting, and immediately transferred onto the top of the Comer Agarose Base Layer Slide (Abcam, ab238544). Set horizontally, the slides were incubated at 4°C in the dark for 15 min, and placed in a small basin/container containing pre‐chilled Lysis Buffer (Abcam, ab238544). They were immersed in the buffer for 1 h at 4°C in the dark. After 1 h, aspiration of the Lysis Buffer from the container was done and replaced with a pre‐chilled Alkaline Solution (Abcam, ab238544), followed by electrophoresis chamber filled with the Alkaline Electrophoresis Solution. Voltage was applied to the chamber for 30 min at 1 volt/cm. The slides were then rinsed with pre‐chilled DI H2O and replaced with cold 70% Ethanol for 5 min. The slide was removed from the 70% Ethanol and allowed to air dry. Once the slide was completely dry, staining with Vista Green DNA Dye (Abcam, ab238544) was done at room temperature for 15 min. Cells were visualized using confocal microscopy (LSM980, Zeiss, Germany) (n = 3, each group).
# [5] = tested on: hDPCs
# [6] = tested on: hDPCs; details: 30 min or 1 h after H2O2 100 μM, 500 μM or 1 mM
smiles,measurement,setting,value
"OO [H2O2, hydrogen peroxide, reference compound]",SA-β gal positive signals (induction of senescence),[1],began to deposit
same,expression of γ-H2AX (immunofluorescence),[2],specifically detected in cellular nuclei
same,expressions of γ-H2AX and P21 (DNA damage and cell cycle arrest),[3]; 500 μM H2O2,upregulated
same,protein expression level of γ-H2AX (western blot),[3]; 1 mM and 2 mM H2O2,clearly detected
same,DNA fragmentation (comet assay),[4],fragmented DNA visualized as a cell tail
same,cytotoxicity of oxidative stress,"[5]; 1 mM and 2 mM H2O2, after 48 h",severe cytotoxicity
same,cell death / survival rate (WST-8),[5]; H2O2 50 μM to 2 mM for 24 h,cell death occurred in a concentration‐dependent manner except for 50 μM
same,endogenous mRNA expression level of Cpne7,[6],started to increase
